From patent US11339168B2, “Crystalline forms of 6-(6-aminopyrazin-2-yl)-N-(4-(4-(oxetan-3-yl)piperazin-1-yl)phenyl)imidazo[1,2-a]pyrazin-8-amine as Syk inhibitors” (Kronos Bio, Inc., priority 2019, dated 2022)
Counter-ions that a name gives are not always drawn.

Test: Hygroscopicity by dynamic vapor sorption (DVS)
Format: physicochemical
Conditions: for hygroscopicity (DVS analysis), in words: 25° C.; for water absorbed (DVS): 25° C. and 95% RH
Experimental: Hygroscopicity was studied using dynamic vapor sorption (DVS, TA Q5000 SA, TA Instruments, New Castle, Del. or DVS, DVS Intrinsic, Surface Measurement Systems, London, UK). A sample (2-20 mg) was placed in an aluminum DVS pan and loaded on the sample side of the twin pan balance. The water sorption and desorption were studied as a function of relative humidity (RH) at 25° C. In 10% RH increments, the relative humidity was increased from 5% RH to 95% RH and then decreased back to 5%. […] Data analysis was performed using Universal Analysis 2000 Version 4.7A (TA Instruments, New Castle, Del.) for TA DVS runs and Microsoft Excel for SMS DVS runs.

[1] = for Mono-BSA Form I up to 85% RH

Compound | hygroscopicity (DVS analysis), in words [1] | water uptake (DVS) (90% RH at 25° C.) | water absorbed (DVS) | water uptake (DVS) (85% RH at 25° C.) | hygroscopicity (DVS analysis), in words (above 85% RH, led to deliquescence)
Nc1cncc(-c2cn3ccnc3c(Nc3ccc(N4CCN(C5COC5)CC4)cc3)n2)n1 [Compound I Sesqui-Adipate Form I, 6-(6-aminopyrazin-2-yl)-N-(4-(4-(oxetan-3-yl)piperazin-1-yl)phenyl)imidazo[1,2-a]pyrazin-8-amine] | moderately hygroscopic | about 2.1 wt. % | – | – | –
Nc1cncc(-c2cn3ccnc3c(Nc3ccc(N4CCN(C5COC5)CC4)cc3)n2)n1 [Compound I Mono-BSA Form I, 6-(6-aminopyrazin-2-yl)-N-(4-(4-(oxetan-3-yl)piperazin-1-yl)phenyl)imidazo[1,2-a]pyrazin-8-amine] | slightly hygroscopic | – | > 15 wt. % | about 1.5 wt. % | very hygroscopic
Nc1cncc(-c2cn3ccnc3c(Nc3ccc(N4CCN(C5COC5)CC4)cc3)n2)n1 [Compound I Hemi-Succinate Form I, 6-(6-aminopyrazin-2-yl)-N-(4-(4-(oxetan-3-yl)piperazin-1-yl)phenyl)imidazo[1,2-a]pyrazin-8-amine] | slightly hygroscopic | about 0.4 wt. % | – | – | –
Nc1cncc(-c2cn3ccnc3c(Nc3ccc(N4CCN(C5COC5)CC4)cc3)n2)n1 [Compound I Mono-HCl salt Form II, 6-(6-aminopyrazin-2-yl)-N-(4-(4-(oxetan-3-yl)piperazin-1-yl)phenyl)imidazo[1,2-a]pyrazin-8-amine] | very hygroscopic | about 16 wt. % | – | – | –

The remaining lines, values ahead:

hygroscopicity (DVS analysis), in words [1] | water uptake (DVS) (90% RH at 25° C.) | water absorbed (DVS) | water uptake (DVS) (85% RH at 25° C.) | hygroscopicity (DVS analysis), in words (above 85% RH, led to deliquescence) | Compound
slightly hygroscopic | – | about 0.8 wt. % | – | – | Nc1cncc(-c2cn3ccnc3c(Nc3ccc(N4CCN(C5COC5)CC4)cc3)n2)n1 [Compound I Form I, 6-(6-aminopyrazin-2-yl)-N-(4-(4-(oxetan-3-yl)piperazin-1-yl)phenyl)imidazo[1,2-a]pyrazin-8-amine]
slightly hygroscopic | – | about 2 wt. % | – | – | Nc1cncc(-c2cn3ccnc3c(Nc3ccc(N4CCN(C5COC5)CC4)cc3)n2)n1 [Compound I Form II, 6-(6-aminopyrazin-2-yl)-N-(4-(4-(oxetan-3-yl)piperazin-1-yl)phenyl)imidazo[1,2-a]pyrazin-8-amine]
slightly hygroscopic | – | about 0.5 wt. % | – | – | Nc1cncc(-c2cn3ccnc3c(Nc3ccc(N4CCN(C5COC5)CC4)cc3)n2)n1 [Compound I Form V, 6-(6-aminopyrazin-2-yl)-N-(4-(4-(oxetan-3-yl)piperazin-1-yl)phenyl)imidazo[1,2-a]pyrazin-8-amine]
